PubChem BioAssay AID602464 (Sanford-Burnham Center for Chemical Genomics, 2012)
Active and inactive are the calls of the source. Rule as the data show it: active = IC50 below about 20 µM; inactive = the rest.

What follows are compounds tested on Gli-responsive luciferase reporter cells, SUFU pathway antagonism (assay: Gli-SUFU pathway antagonists, dose response, cell-based, luciferase luminescence, uHTS hits (AID 602464)).
`Cc1cc(/C=N/n2cnnc2)c(C)n1-c1ccc(OCc2ccccc2F)cc1` showed an IC50 of 4.28 µM. In the case of `CCCCn1c(CN(C)Cc2ccccc2)nc2c1c(=O)n(C)c(=O)n2C`, the IC50 is reported as 6.85 µM. In the case of `CC(C)C(=O)N1CCN(c2ccccc2NC(=O)COc2ccccc2)CC1`, the IC50 is reported as > 20 µM (inactive). `Clc1ccc(-c2c[n+](Cc3ccc(Cl)cc3Cl)c3n2CCCCC3)cc1` was tested, and the IC50 was 5.31 µM. `CCCN1CCC(=O)N([C@H](CSc2ccc(OC)cc2)Cc2ccccc2)CC1` showed an IC50 of 9.77 µM. For `CCCCOc1ccc(N2C(N)=NC(N)=NC23CCCCC3)cc1`, the IC50 was 17.1 µM. With `CC(=O)c1c(C)[nH]c(C(=O)OCC(=O)Nc2sc3c(c2C#N)CCCC3)c1C` the IC50 was 5.59 µM. `C=CCOc1nc2c(c(=O)n(C)c(=O)n2C)n1Cc1ccc(Cl)cc1Cl` showed an IC50 of 10.3 µM. Compound `O=C(N[C@@H]1C/C=C\C[C@H](CC(=O)N(CCO)Cc2ccccc2)C(=O)N[C@@H](Cc2c[nH]c3ccccc23)COC1=O)OCC1c2ccccc2-c2ccccc21` has an IC50 of 10.9 µM. With `CC(=O)c1cccc(NS(=O)(=O)c2ccc(-c3cnc(C4CC4)o3)cc2)c1` the IC50 was 8.16 µM. `O=C(Nc1ccncc1)c1ccc(-c2ccccc2)cc1` gave an IC50 of 6.43 µM. For `CC(C)Cc1ccc(C(C)C(=O)Nc2cccnc2)cc1` (centres undefined), the IC50 was 13 µM. Work on `CC1CCN(c2c(NCc3ccc(C(=O)N4c5ccccc5CC4C)cc3)c(=O)c2=O)CC1` (centres undefined) yielded an IC50 of 5.18 µM. With `Cc1cc(C)c[n+](C(C)C(=O)c2ccc(-c3ccccc3)cc2)c1` (centres undefined) the IC50 was 5.92 µM. `Cc1nc2ccccc2n1Cc1ccc(Br)cc1` was tested, and the IC50 was 4.73 µM. For `Cc1c(C(C)C)c(=O)n(-c2ccc(S(=O)(=O)NCc3ccccc3)cc2)n1C`, the IC50 was 3.84 µM. `O=C(Cn1cc(C(=O)c2ccco2)c2ccccc21)Nc1ccccc1F` gave an IC50 of 4.27 µM. With `COc1ccc(CNc2cc(C)nc3ncnn23)c(OC)c1` the IC50 was 10.6 µM. `COc1cc(C(=O)NC2CCN(C)CC2)ccc1Nc1ncc2c(n1)N(C1CCCCC1)CCC(=O)N2C` gave an IC50 of 1.6 µM. `CCOC(=O)C1CCCN(S(=O)(=O)c2ccc(S(=O)(=O)N(CC)CC)cc2)C1` (centres undefined) showed an IC50 of 3.29 µM. Compound `Nc1ccc(Br)cc1-c1nc2ccccc2[nH]c1=O` has an IC50 of 0.771 µM. In the case of `COc1cccc2nc3c(C(=O)NCCN(C)C)cccc3cc12`, the IC50 is reported as 3.02 µM. Compound `CN1/C(=C\C=Nc2ccccc2)C(C)(C)c2ccccc21` has an IC50 of 6 µM. Compound `Cc1nc2ncccn2c1-c1csc(Nc2ccc(O)cc2)n1` has an IC50 of 4.37 µM. Compound `Cc1cc(Br)c(S(=O)(=O)NCc2ccncc2)cc1C` has an IC50 of 8.04 µM. In the case of `Cc1cc(=O)[nH]c(SCC(=O)/C=C2\N(C)c3ccccc3C2(C)C)n1`, the IC50 is reported as 5.13 µM. With `CCC(C)NS(=O)(=O)c1ccc(S(=O)(=O)N2CCCC3(CCCCC3)C2)cc1` (centres undefined) the IC50 was > 20 µM (inactive). For `CC[N+](C)(CC)CCC(c1ccccc1)C1CCCCC1` (centres undefined), the IC50 was 13.1 µM. For `COc1ccc(-c2nn(-c3ccccc3)cc2/C=N/NC(=O)c2ccc(Br)o2)cc1`, the IC50 was 5.42 µM. `Cc1nc2cc(N3CCN(C)CC3)c(NC(=O)Cc3ccccc3)cc2c(=O)n1Cc1ccccc1` was tested, and the IC50 was 12.3 µM. Compound `C=CCOC(=O)c1[nH]c2c(c1C)C(=O)CC(c1cc(OC)c(OC)c(OC)c1)C2` (centres undefined) has an IC50 of 1.98 µM. For `O=C(C[C@@H]1C/C=C\C[C@@H](NC(=O)OCC2c3ccccc3-c3ccccc32)C(=O)OC[C@@H](Cc2ccccc2)NC1=O)NCCO`, the IC50 was 10 µM. `O=C(N[C@H]1C/C=C\C[C@@H](CC(=O)N(CCO)Cc2ccccc2)C(=O)NC[C@H](c2ccccc2)OC1=O)OCC1c2ccccc2-c2ccccc21` showed an IC50 of 7.18 µM. In the case of `COc1ccc(NS(=O)(=O)c2ccc(N3CCCCC3)c(N)c2)cc1`, the IC50 is reported as 5.14 µM. For `CC(=O)c1cn(CCOc2ccccc2C)c2ccccc12`, the IC50 was 8.58 µM. `Cc1nc2sccn2c1-c1csc(NCc2ccccc2)n1` was tested, and the IC50 was 9.83 µM. `CC(=O)Nc1cccc(OCC(=O)/C=C2\N(C)c3ccccc3C2(C)C)c1` showed an IC50 of 4.73 µM. Work on `Cc1nc2ccccc2c2oc(C(=O)N3CCN(C4CCCCC4)CC3)cc12` yielded an IC50 of 18.7 µM. `Cn1nc(CC(=O)NCc2ccc(C(F)(F)F)cc2)c2ccccc2c1=O` was tested, and the IC50 was 6.65 µM. `CCCCCCn1c(=O)c(C(=O)Nc2cnccn2)c(O)c2ccccc21` showed an IC50 of 9.19 µM. `Cc1ccc(C2=C(CC(=O)O)C(=O)CC2)cc1` was tested, and the IC50 was > 20 µM (inactive). `CCNc1nc(CN2CCCCC2)nc2scc(-c3ccccc3)c12` was tested, and the IC50 was 5.95 µM. `CC[N+]1=C(C)C(C)(C)c2cc(C)ccc21` showed an IC50 of 2.06 µM. `CCOc1ccc(S(=O)(=O)NCc2ccncc2)cc1NC(=O)c1ccccc1` showed an IC50 of 0.94 µM. With `O=C(C[C@H]1C/C=C\C[C@@H](NC(=O)OCC2c3ccccc3-c3ccccc32)C(=O)O[C@@H](c2ccccc2)CNC1=O)N[C@H](CO)Cc1ccccc1` the IC50 was 7.67 µM. `COc1ccc(OC)c(Cc2cnc3nc(N)nc(N)c3c2C)c1` gave an IC50 of 2.8 µM. With `CC(=O)N1c2ccc(S(=O)(=O)N3CCC(C(=O)N4CCCCC4)CC3)cc2CC1C` (centres undefined) the IC50 was 16.9 µM. In the case of `O=C(c1cc2nc(-c3ccc(F)cc3)cc(C(F)(F)F)n2n1)N1CCCCC1c1cccnc1` (centres undefined), the IC50 is reported as > 20 µM (inactive). With `CC(Sc1nc2ccccc2c(=O)n1C)C(=O)N(C)C1CCCCC1` (centres undefined) the IC50 was 3.99 µM. `Cc1ncoc1C(=O)NC1CCCc2c1cnn2-c1ccc(C(C)(C)C)cc1` (centres undefined) showed an IC50 of 7.46 µM. `COc1cc(C(=O)NC2CCN(C)CC2)ccc1Nc1ncc2c(n1)N(CCc1ccccc1)CCC(=O)N2C` was tested, and the IC50 was 4.62 µM. `Cc1ccc(-c2csc(NC(=O)c3c(C)noc3C)n2)s1` was tested, and the IC50 was 5.53 µM. In the case of `COc1ccc(CNCC(O)COc2cccc3c2OC(C)(C)C3)cc1` (centres undefined), the IC50 is reported as 5.99 µM. Work on `CCOC(=O)N1CCN(C(=O)c2cc(COc3ccc4ncccc4c3)on2)CC1` yielded an IC50 of 6.71 µM. `CCOC(=O)CC1CCCCN1C(=O)c1cc(COc2cccc3cnccc23)on1` (centres undefined) showed an IC50 of 4.47 µM. Work on `Cc1cc(C)nc(/N=C(\N)Nc2ccccc2-c2ccccc2)n1` yielded an IC50 of 12.8 µM. `CC(C)(C)[C@H]1COC(=O)[C@H](NC(=O)OCC2c3ccccc3-c3ccccc32)C/C=C\C[C@@H](CC(=O)N(CCO)Cc2ccccc2)C(=O)N1` was tested, and the IC50 was 11.8 µM. With `O=C(N/N=C/c1cc2ccccc2nc1Cl)[C@H]1C[C@@H]1c1ccccc1` the IC50 was 16.4 µM. With `CC(=O)c1cn(Cc2ccccc2F)c2ccccc12` the IC50 was 8.82 µM. `Cc1ccc(NC(=O)COc2ccccc2C(N)=O)cc1S(=O)(=O)N1CCCCCC1` showed an IC50 of 12.3 µM. In the case of `Cc1sc2ncnc(NCC(C)(C)N3CCOCC3)c2c1C`, the IC50 is reported as 3.85 µM. For `O=C(Nc1cc2c3c(c1)C1CCCC1CN3CC1CCCC21)c1ccc([N+](=O)[O-])cc1` (centres undefined), the IC50 was 5.09 µM. `O=C(c1cc2sccc2n1Cc1ccc(F)cc1)N1CCN(c2nc3ccccc3s2)CC1` was tested, and the IC50 was 4.32 µM. `COc1cc(C(=O)NC2CCN(C)CC2)ccc1Nc1ncc2c(n1)N(Cc1ccccc1)CCC(=O)N2C` was tested, and the IC50 was 1.28 µM. `Clc1ccc(-n2cc(-c3ccc(Br)cc3)[n+]3c2CCCCC3)cc1` was tested, and the IC50 was 7.04 µM. `COc1cc2c(c(OC)c1OC)-c1ccc(N(C)CC(OC)OC)c(=O)cc1[C@@H](NC(C)=O)CC2` was tested, and the IC50 was 7.37 µM. For `O=C(N[C@@H]1C/C=C\C[C@H](CC(=O)N(CCO)Cc2ccccc2)C(=O)NC[C@@H](c2ccccc2)OC1=O)OCC1c2ccccc2-c2ccccc21`, the IC50 was 6.27 µM. `CCn1c(=NC(=O)CCS(=O)(=O)c2ccccc2)sc2cccc(OC)c21` gave an IC50 of 3.11 µM. For `COc1ccc(Nc2nc(N3CCOCC3)nc(N3CCOCC3)n2)c(OC)c1`, the IC50 was > 20 µM (inactive). `CCn1c(C)nc2cc(-c3nnc(-c4c(-c5ccccc5)noc4C)o3)ccc21` gave an IC50 of 7.36 µM. `O=C(C[C@@H]1C/C=C\C[C@H](NC(=O)OCC2c3ccccc3-c3ccccc32)C(=O)OC[C@H]2CCCN2C1=O)N[C@H](CO)Cc1ccccc1` gave an IC50 of 6.71 µM. Compound `Cc1ccc(C)c(-c2csc(NC(=O)C3=COCCO3)n2)c1` has an IC50 of 6.31 µM. `O=C(NC1CCCC1)c1cc(COc2ccc3ncccc3c2)on1` was tested, and the IC50 was 5.18 µM. `Cc1cccnc1CN1CCN(C(=O)c2cc(COc3ccc4ncccc4c3)on2)CC1` was tested, and the IC50 was 5.18 µM. `Cc1cc(C)c(C(N)=O)c(SCC(=O)c2cc(C)n(-c3cc(C)on3)c2C)n1` was tested, and the IC50 was 4.78 µM. In the case of `CC(=O)Nc1ccc(S(=O)(=O)N(Cc2ccccc2)C(C)C)cc1`, the IC50 is reported as 8.29 µM. Work on `CN(Cc1ccc(OCC(O)CN2CCCCC2)cc1)Cc1ccnc2ccccc12` (centres undefined) yielded an IC50 of 8.47 µM. For `COc1ccc(CCNc2ncnc3c2oc2ccccc23)cc1OC`, the IC50 was 2.72 µM. `CC(C)C(=O)NC(=S)/C=C1/N(C)c2ccccc2C1(C)C` showed an IC50 of 4.76 µM. For `COc1ccc(CNc2ncnc3c2[nH]c2ccccc23)cc1`, the IC50 was 2.79 µM. Work on `O=C(N[C@@H]1C/C=C\C[C@@H](CC(=O)N(CCO)Cc2ccccc2)C(=O)N[C@@H](c2ccccc2)COC1=O)OCC1c2ccccc2-c2ccccc21` yielded an IC50 of 11.9 µM. With `CN(Cc1ccc(OC(F)F)cc1)C(=O)c1cccc(S(=O)(=O)N2CCN(Cc3ccccc3)CC2)c1` the IC50 was 6.92 µM. `C[N+]1(CC(=O)OC2CCCCCCCCCCC2)CCCC1` gave an IC50 of 19.3 µM. `CNc1nc(NCc2ccccc2)c2ccccc2n1` was tested, and the IC50 was 20 µM. For `CCCCNc1c(-c2ccc(OC)c(Sc3ccc(OC)cc3)c2)nc2ccccn12`, the IC50 was 6.31 µM. With `CCCOc1ccc(Br)cc1CSC(=N)N` the IC50 was 9.84 µM. In the case of `COc1cccc(/C=C/c2ccncc2)c1OC`, the IC50 is reported as 8.95 µM. `C[n+]1c2n(c3ccccc31)N=C(c1ccc(-c3ccccc3)cc1)CS2` gave an IC50 of 1.32 µM. In the case of `COc1ccc(-n2c(-c3ccc(Cl)cc3)c[n+]3c2CCc2ccccc2-3)cc1`, the IC50 is reported as 1.78 µM. For `NC(=O)c1ccccc1OCC(=O)N1CCC(Cc2ccccc2)CC1`, the IC50 was 5.61 µM. Work on `CCCCOC(=O)c1[nH]c2c(c1C)C(=O)CC(c1cc(OC)c(OC)c(OC)c1)C2` (centres undefined) yielded an IC50 of 2.22 µM. In the case of `O=C(/C=C/c1ccco1)Nc1ccc(-c2nc3ccccc3[nH]2)cc1`, the IC50 is reported as 1.99 µM. Work on `CCOC(=O)c1sc2nc(CC(=O)OC)nc(NCc3ccc(Cl)cc3)c2c1C` yielded an IC50 of 9.23 µM. `Cc1ccc2c(c1)c(C)cc[n+]2Cc1ccccc1` showed an IC50 of 8.76 µM. `Cc1cccc(C)c1NC(=S)N(CCN1CCCCCC1)Cc1ccco1` was tested, and the IC50 was > 20 µM (inactive). `COc1ccc(C2=[N+](C)CCn3cccc32)c(OC)c1` gave an IC50 of 10.2 µM. Work on `Cc1nn(Cc2noc(C(=O)NC3CCC(C)CC3)n2)c(C)c1Br` (centres undefined) yielded an IC50 of 8.59 µM. Work on `Cc1cc(C)c(C)c(S(=O)(=O)N2CCN(c3ncnc4ccccc34)CC2)c1C` yielded an IC50 of 4.6 µM. Compound `FC(F)Oc1ccc(-c2c[n+]3c(n2-c2ccccc2)CCCCC3)cc1` has an IC50 of 7.36 µM. `C[C@@H]1COC(=O)[C@H](NC(=O)OCC2c3ccccc3-c3ccccc32)C/C=C\C[C@@H](CC(=O)N[C@@H](CO)Cc2ccccc2)C(=O)N1` was tested, and the IC50 was 7.8 µM. Compound `Cc1cc(-c2ccccc2)cc(-c2ccccc2)[n+]1C` has an IC50 of 4.46 µM. `COc1ccc(CN2CCC(C(=O)Nc3ccc(Oc4cccnc4)cc3)CC2)c(C)c1C` gave an IC50 of 12.6 µM. In the case of `CC(CC(=O)N1CCN(c2cccc(Cl)c2)CC1)S(=O)(=O)c1ccc2c(c1)NC(=O)CO2` (centres undefined), the IC50 is reported as 6.43 µM. `CCOc1ccc(-c2nc(CSCC(=O)NCC3CCCO3)c(C)o2)cc1` (centres undefined) was tested, and the IC50 was 1.47 µM.
